From the supplement of paper PMC10307832

What was measured:
Assay in all cases: relative viability (nuclei count vs DMSO), 5 days (fraction); higher = more cells survive
[1] = compound: CCn1c(-c2nonc2N)nc2cnc(Oc3cccc(NC(=O)c4ccc(OCCN5CCOCC5)cc4)c3)cc21 + Cc1nc(Nc2ncc(C(=O)Nc3c(C)cccc3Cl)s2)cc(N2CCN(CCO)CC2)n1 [Dasatinib] (partner 0.075 µM)
Outline: (§1)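 Relative viability divides the nuclei count in treated wells by that in vehicle wells. Lung cancer cell lines were seeded in 1536-well plates, dosed by pin tool the next day, and fixed and stained after 5 days in one step with final 0.05% Triton X-100, 1% formaldehyde and 1 ug/ml Hoechst. Dosing was a single drug or a fixed anchor-drug dose plus five library-drug doses (not always all listed) in √10 steps, and values are medians of duplicate plates imaged at 4×.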

[2] = compound: CCC1=CN=CN=C1N2CCN(CC2)CC3=NC4=C(N3)C=C(C=C4)C(F)(F)F + O=C(c1cc(Cc2n[nH]c(=O)c3ccccc23)ccc1F)N1CCN(C(=O)C2CC2)CC1 [Olaparib] (partner 8 µM)
Outline: as §1

[3] = compound: CCn1c(-c2nonc2N)nc2cnc(Oc3cccc(NC(=O)c4ccc(OCCN5CCOCC5)cc4)c3)cc21 + CS(=O)(=O)N1CCN(Cc2cc3nc(-c4cccc5[nH]ncc45)nc(N4CCOCC4)c3s2)CC1 [Pictilisib] (partner 1 µM)
Outline: as §1

[4] = compound: CCn1c(-c2nonc2N)nc2cnc(Oc3cccc(NC(=O)c4ccc(OCCN5CCOCC5)cc4)c3)cc21 + NC(=O)Nc1cc(-c2cccc(F)c2)sc1C(=O)N[C@H]1CCCNC1 [AZD7762] (partner 0.2 µM)
Outline: as §1

| Cell Line | relative viability ([1]; first compound 0.04 µM) | relative viability ([1]; first compound 0.1265 µM) | relative viability ([1]; first compound 0.4 µM) | relative viability ([1]; first compound 1.265 µM) | relative viability ([1]; first compound 4 µM) | relative viability ([2]; first compound 0.04 µM) | relative viability ([2]; first compound 0.1265 µM) | relative viability ([2]; first compound 0.4 µM) | relative viability ([2]; first compound 1.265 µM) | relative viability ([2]; first compound 4 µM) | relative viability ([3]; first compound 0.04 µM) | relative viability ([3]; first compound 0.1265 µM) | relative viability ([3]; first compound 0.4 µM) | relative viability ([3]; first compound 1.265 µM) | relative viability ([3]; first compound 4 µM) | relative viability ([4]; first compound 0.04 µM) | relative viability ([4]; first compound 0.1265 µM) | relative viability ([4]; first compound 0.4 µM) | relative viability ([4]; first compound 1.265 µM) | relative viability ([4]; first compound 4 µM) |
| --- | --- | --- | --- | --- | --- | --- | --- | --- | --- | --- | --- | --- | --- | --- | --- | --- | --- | --- | --- | --- |
| HCC-366 | 0.699 | 0.504 | 0.0838 | 0.0451 | 0.0508 | 0.38 | 0.355 | 0.29 | 0.349 | 0.335 | 0.124 | 0.151 | 0.0942 | 0.0463 | 0.0657 | 0.233 | 0.123 | 0.101 | 0.0314 | 0.0325 |
| HCC-827 | 0.24 | 0.328 | 0.459 | 0.484 | 0.424 | 0.698 | 0.706 | 0.721 | 0.567 | 0.595 | 1.08 | 1.06 | 1.09 | 0.824 | 0.933 | 0.241 | 0.23 | 0.233 | 0.178 | 0.203 |
| HOP-62 | 0.511 | 0.344 | 0.179 | 0.172 | 0.17 | 0.377 | 0.293 | 0.269 | 0.458 | 0.363 | 0.88 | 0.757 | 0.599 | 0.535 | 0.433 | 0.774 | 0.443 | 0.468 | 0.227 | 0.19 |
| IA-LM |  |  |  |  |  | 0.649 | 0.838 | 0.812 | 0.703 | 0.765 | 0.751 | 0.538 | 0.634 | 0.733 | 0.674 |  |  |  |  |  |
| LC-2-ad | 0.957 | 0.717 | 0.343 | 0.309 | 0.479 | 0.733 | 0.644 | 0.661 | 0.653 | 0.636 | 0.683 | 0.729 | 0.372 | 0.451 | 0.386 | 0.882 | 0.79 | 0.57 | 0.368 | 0.281 |
| NCI-H520 | 0.166 | 0.174 | 0.166 | 0.163 | 0.139 | 0.291 | 0.415 | 0.349 | 0.333 | 0.298 | 0.326 | 0.31 | 0.256 | 0.265 | 0.182 |  |  |  |  |  |
| NCI-H522 | 0.735 | 0.797 | 0.656 | 0.614 | 0.667 | 0.601 | 0.613 | 0.573 | 0.526 | 0.558 |  |  |  |  |  | 0.697 | 0.821 | 0.549 | 0.689 | 0.474 |
| NCI-H661 | 0.672 | 0.519 | 0.593 | 0.422 | 0.426 | 0.802 | 0.719 | 0.767 | 0.661 | 0.738 | 0.415 | 0.457 | 0.33 | 0.202 | 0.288 |  |  |  |  |  |
| NCI-H1299 |  |  |  |  |  | 0.942 | 0.969 | 0.975 | 0.982 | 0.949 | 0.956 | 0.735 | 0.74 | 0.618 | 0.393 |  |  |  |  |  |
| NCI-H1563 | 0.447 | 0.452 | 0.343 | 0.461 | 0.456 |  |  |  |  |  | 0.629 | 0.678 | 0.638 | 0.66 | 0.569 |  |  |  |  |  |
| NCI-H1623 | 0.655 | 0.797 | 0.529 | 0.543 | 0.606 |  |  |  |  |  |  |  |  |  |  |  |  |  |  |  |
| NCI-H1648 |  |  |  |  |  | 0.985 |  |  | 0.558 | 0.673 |  |  |  |  |  | 0.978 | 1.02 | 0.981 | 1.09 | 0.693 |
| NCI-H1650 | 0.324 | 0.36 | 0.371 | 0.398 | 0.363 | 0.682 | 0.797 | 0.708 | 0.642 | 0.907 | 0.9 | 0.595 | 0.551 | 0.502 | 0.527 |  |  |  |  |  |
| NCI-H1703 |  |  |  |  |  | 0.511 | 0.536 | 0.397 | 0.332 | 0.396 | 0.242 | 0.312 | 0.206 | 0.215 | 0.188 |  | 0.111 | 0.115 | 0.119 | 0.123 |
| NCI-H2009 | 0.266 | 0.144 | 0.136 | 0.148 | 0.152 | 0.647 | 0.649 | 0.632 | 0.578 | 0.594 | 0.971 | 0.774 | 0.629 | 0.461 | 0.348 |  |  |  |  |  |
| NCI-H2023 | 0.519 | 0.424 | 0.257 | 0.294 | 0.232 | 0.53 | 0.48 | 0.493 | 0.418 | 0.46 | 0.315 | 0.293 | 0.199 | 0.231 | 0.221 |  |  |  |  |  |
| NCI-H2228 | 0.592 | 0.519 | 0.431 | 0.407 | 0.421 |  | 0.608 | 0.551 | 0.658 | 0.488 | 0.607 | 0.3 | 0.229 | 0.605 | 0.254 |  |  |  |  |  |
| NCI-H2342 | 0.332 | 0.319 | 0.294 | 0.289 | 0.302 | 0.51 | 0.402 | 0.384 | 0.275 | 0.34 |  |  |  |  |  | 0.572 | 0.551 | 0.361 | 0.422 | 0.459 |
| SK-LU-1 | 0.157 | 0.15 | 0.103 | 0.139 | 0.128 | 0.452 | 0.438 | 0.47 | 0.443 | 0.442 | 0.686 | 0.448 | 0.432 | 0.336 | 0.416 |  |  |  |  |  |
| SK-MES-1 | 0.429 | 0.256 | 0.224 | 0.244 | 0.172 | 0.657 | 0.643 | 0.684 | 0.592 | 0.673 | 0.365 | 0.355 | 0.386 | 0.422 | 0.323 |  |  |  |  |  |
| SW 900 | 0.413 | 0.456 | 0.312 | 0.42 | 0.41 | 0.928 | 0.764 | 0.863 |  | 0.82 |  |  |  |  |  | 0.668 | 0.59 | 0.647 | 0.435 | 0.495 |
| SW 1573 | 0.597 | 0.319 | 0.21 | 0.246 | 0.166 | 0.447 | 0.462 | 0.45 | 0.443 | 0.379 | 0.545 | 0.507 | 0.492 | 0.487 | 0.312 |  |  |  |  |  |
